Read-outs that look alike come from different tables or passages of the source.
Tested on: HCV replicon (HCV1b sub-genomic, Huh-7 cells)
Assay: HCV replicon RNA replication assay (luciferase reporter)
Type: cell-based, Hepatitis C virus (CON-1 genotype b)
Settings: Hepatitis C virus
Experimental: All curve fitting was conducted using non-linear regression analyses from PRISM (version 4.0c, GraphPad Inc.) and the determination of Rmax and EC50 or IC50 parameters were obtained from sigmoidal dose-response phase (variable slope) equation.
The replicon HCV1b is generated based on the wild-type sequence CON-1 genotype b (GenBank accession number AJ238799; Lohmann et al., Science 1999, 285: 110-113) and expressed the sub-genomic fragment HCV NS3-NS4A-NS4B-NS5A-NS5B. The replicon contain a hybrid HCV-IRES 5′UTR, a modified luciferase reporter gene expressed as a luciferase-Ubi-neomycin phosphotransferase gene fusion and an EMCV IRES NS3-NS5B subgenomic fragment with its 3′UTR. To generate cell lines harboring the replicon, Huh-7 cells are electroporated with purified in vitro HCV1b RNA transcripts and stable cell lines are selected in the presence of G418. Stable replicon cell lines are established as described in Science 1999, 285: 110-113. The amount of luciferase expressed by selected cells directly correlates with the level of HCV RNA replication, as measured by real-time PCR.
Stable HCV replicon cells are maintained in Dulbecco's Modified Eagle Medium (DMEM) supplemented with 10% FBS and 0.5 mg/ml G418. During the assay, DMEM supplemented with 10% FBS, containing 0.5% DMSO and lacking G418 are used as assay medium. For the assay, cell stocks are trypsinized and diluted in assay medium to distribute 7,500 cells in 96-well plates. The plates are then incubated at 37° until compound addition. Serial dilutions of the test compound are prepared in 100% DMSO, before dilution in assay medium to a final DMSO concentration of 0.5% to generate a concentration dose response curves. A fixed volume from each well of the compound dilution plate is transferred to a corresponding well of the cell culture plate. The cell culture plate is incubated at 37° C. with 5% CO2 for 72 hours. Following the 72 h incubation period, the medium is aspirated from the 96-well assay plate and a volume of 50_l of lysis buffer 100 mM Tris acetate, 20 mM Mg acetate, 2 mM EGTA, 3.6 mM ATP, 1% Brij 58, 0.7%_-mercaptoethanol containing 45_g/ml luciferine (pH 7.9) is added to each well. The luciferase activity is determined using the luciferase substrate and the luminescence is detected on a MicroBeta JET 1450 LSC & Luminescence Counter (Perkin Elmer) instrument. The luminescence in each well of the culture plate is a measure of the amount of HCV RNA replication in the presence of various concentrations of inhibitor. The % inhibition is calculated for each inhibitor concentration and used to determine the concentration that results in 50% inhibition of HCV replication (EC50).

[1] = Huh-7, 72 h, read-out: EC50 (Range)

## Cc1noc(-c2ccc(Cl)cc2)c1C(=O)O/N=C(\N)c1ccc(Cl)cc1 [Compound 60, reference compound]
Huh-7
  EC50: 500 to 1000 nM

## Cc1noc(C)c1C(=O)O/N=C(\N)c1cccc(C(F)(F)F)c1 [Compound 61, reference compound]
Huh-7
  EC50: 1000 to 10000 nM

## Cc1noc(C)c1C(=O)O/N=C(\N)c1ccc(-c2csnn2)cc1 [Compound 62, reference compound]
Huh-7
  EC50: 500 to 1000 nM

## Cc1noc(C)c1C(=O)O/N=C(\N)Cc1ccc(-c2csnn2)cc1 [Compound 63, reference compound]
Huh-7
  EC50: 500 to 1000 nM

## Cc1onc(-c2ccccc2Cl)c1C(=O)O/N=C1/CCCCN1 [Compound 64, reference compound]
Huh-7
  EC50: < 500 nM

## N/C(=N\OC(=O)c1conc1-c1ccccc1Cl)c1ccc2c(c1)OCO2 [Example 1, (Z)—N′-((3-(2-chlorophenyl)isoxazole-4-carbonyl)oxy)benzo[d][1,3]dioxole-5-carboximidamide]
[1]
  EC50: 1000 to 10000 nM

## COc1ccc(C/C(N)=N/OC(=O)c2c(C)cccc2C)c(OC)c1 [Example 2, (Z)-2-(2,4-dimethoxyphenyl)-N′-((2,6-dimethylbenzoyl)oxy)acetimidamide]
[1]
  EC50: < 500 nM

## COc1ccccc1/C(N)=N/OC(=O)c1c(C)cccc1C [Example 3, (Z)—N′-((2,6-dimethylbenzoyl)oxy)-2-methoxybenzimidamide]
[1]
  EC50: < 500 nM

## N/C(=N\OC(=O)c1c(C(F)(F)F)cccc1C(F)(F)F)c1ccc2c(c1)OCO2 [Example 4, (Z)—N′-((2,6-bis(trifluoromethyl)benzoyl)oxy)benzo[d][1,3]dioxole-5-carboximidamide]
[1]
  EC50: 1000 to 10000 nM

## COc1ccc(C/C(N)=N/OC(=O)c2ccccc2-c2ccccc2)cc1 [Example 5, (Z)—N′-(([1,1′-biphenyl]-2-carbonyl)oxy)-2-(4-methoxyphenyl)acetimidamide]
[1]
  EC50: < 500 nM

## CC(C)(C(=O)O/N=C(\N)c1ccc2c(c1)OCO2)c1ccccc1 [Example 6, (Z)—N′-((2-methyl-2-phenylpropanoyl)oxy)benzo[d][1,3]dioxole-5-carboximidamide]
[1]
  EC50: 500 to 1000 nM

## COc1ccccc1C/C(N)=N/OC(=O)c1c(C)cccc1C [Example 7, (Z)—N′-((2,6-dimethylbenzoyl)oxy)-2-(2-methoxyphenyl)acetimidamide]
[1]
  EC50: 500 to 1000 nM

## Cc1cccc(C)c1C(=O)O/N=C(\N)CCc1ccc(Br)cc1 [Example 8, (Z)-3-(4-bromophenyl)-N′-((2,6-dimethylbenzoyl)oxy)propanimidamide]
[1]
  EC50: < 500 nM

## CC(C(=O)O/N=C(\N)c1ccc2c(c1)OCO2)(c1ccccc1)c1ccccc1 [Example 9, (Z)—N′-((2,2-diphenylpropanoyl)oxy)benzo[d][1,3]dioxole-5-carboximidamide]
[1]
  EC50: < 500 nM

## Cc1onc(-c2ccccc2Cl)c1C(=O)O/N=C(\N)CCc1ccc(Br)cc1 [Example 10, (Z)-3-(4-bromophenyl)-N′-((3-(2-chlorophenyl)-5-methylisoxazole-4-carbonyl)oxy)propanimidamide]
[1]
  EC50: < 500 nM

## N/C(=N\OC(=O)c1c(-c2ccccc2Cl)noc1C1CC1)c1ccc2c(c1)OCO2 [Example 11, (Z)—N′-((3-(2-chlorophenyl)-5-cyclopropylisoxazole-4-carbonyl)oxy)benzo[d][1,3]dioxole-5-carboximidamide]
[1]
  EC50: < 500 nM

## CC(C)c1onc(-c2ccccc2Cl)c1C(=O)O/N=C(\N)c1ccc(OCc2ccc(Cl)cc2)cc1 [Example 12, (Z)-4-((4-chlorobenzyl)oxy)-N′-((3-(2-chlorophenyl)-5-isopropylisoxazole-4-carbonyl)oxy)benzimidamide]
[1]
  EC50: 500 to 1000 nM

## N/C(=N\OC(=O)c1c(-c2ccccc2Cl)noc1Cc1ccccc1)c1ccc2c(c1)OCO2 [Example 13, (Z)—N′-((5-benzyl-3-(2-chlorophenyl)isoxazole-4-carbonyl)oxy)benzo[d][1,3]dioxole-5-carboximidamide]
[1]
  EC50: < 500 nM

## CN/C(=N\OC(=O)c1c(-c2ccccc2Cl)noc1C)c1ccc2c(c1)OCO2 [Example 14, (Z)—N′-((3-(2-chlorophenyl)-5-methylisoxazole-4-carbonyl)oxy)-N-methylbenzo[d][1,3]dioxole-5-carboximidamide]
[1]
  EC50: < 500 nM

## COc1ccccc1C/C(N)=N/OC(=O)c1c(-c2ccccc2Cl)noc1C(C)C [Example 15, (Z)—N′-((3-(2-chlorophenyl)-5-isopropylisoxazole-4-carbonyl)oxy)-2-(2-methoxyphenyl)acetimidamide]
[1]
  EC50: < 500 nM

## COCc1onc(-c2ccccc2Cl)c1C(=O)O/N=C(\N)c1ccc2c(c1)OCO2 [Example 16, (Z)—N′-((3-(2-chlorophenyl)-5-(methoxymethyl)isoxazole-4-carbonyl)oxy)benzo[d][1,3]dioxole-5-carboximidamide]
[1]
  EC50: 500 to 1000 nM

## N/C(=N\OC(=O)c1c(-c2ccccc2Cl)noc1-c1ccncc1)c1ccc2c(c1)OCO2 [Example 17, (Z)—N′-((3-(2-chlorophenyl)-5-(pyridin-4-yl)isoxazole-4-carbonyl)oxy)benzo[d][1,3]dioxole-5-carboximidamide]
[1]
  EC50: 1000 to 10000 nM

## N/C(=N\OC(=O)c1c(-c2ccccc2Cl)noc1-c1ccccc1)c1ccc2c(c1)OCO2 [Example 18, (Z)—N′-((3-(2-chlorophenyl)-5-phenylisoxazole-4-carbonyl)oxy)benzo[d][1,3]dioxole-5-carboximidamide]
[1]
  EC50: 500 to 1000 nM

## Cc1onc(-c2ccccc2Cl)c1C(=O)O/N=C(/c1ccc2c(c1)OCO2)N(C)C [Example 19, (Z)—N′-((3-(2-chlorophenyl)-5-methylisoxazole-4-carbonyl)oxy)-N,N-dimethylbenzo[d][1,3]dioxole-5-carboximidamide]
[1]
  EC50: 1000 to 10000 nM

## CCCCN/C(=N\OC(=O)c1c(-c2ccccc2Cl)noc1C)c1ccc2c(c1)OCO2 [Example 20, (Z)—N-butyl-N′-((3-(2-chlorophenyl)-5-methylisoxazole-4-carbonyl)oxy)benzo[d][1,3]dioxole-5-carboximidamide]
[1]
  EC50: < 500 nM

## Cc1onc(-c2ccccc2Cl)c1C(=O)O/N=C(\NCc1cccnc1)c1ccc2c(c1)OCO2 [Example 21, (Z)—N′-((3-(2-chlorophenyl)-5-methylisoxazole-4-carbonyl)oxy)-N-(pyridin-3-ylmethyl)benzo[d][1,3]dioxole-5-carboximidamide]
[1]
  EC50: 500 to 1000 nM

## COc1ccccc1C/C(N)=N/OC(=O)c1c(-c2ccccc2Cl)noc1C [Example 22]
[1]
  EC50: < 500 nM

## COc1ccc(C/C(N)=N/OC(=O)c2c(-c3ccccc3Cl)noc2C)cc1 [Example 23, (Z)—N′-((3-(2-chlorophenyl)-5-methylisoxazole-4-carbonyl)oxy)-2-(4-methoxyphenyl)acetimidamide]
[1]
  EC50: 500 to 1000 nM

## Cc1onc(-c2ccccc2Cl)c1C(=O)O/N=C(\N)Cc1nc2ccccc2s1 [Example 24, (Z)-2-(benzo[d]thiazol-2-yl)-N′-((3-(2-chlorophenyl)-5-methylisoxazole-4-carbonyl)oxy)acetimidamide]
[1]
  EC50: 1000 to 10000 nM

## Cc1ccc(/C(N)=N/OC(=O)c2cc(C)oc2C)cc1 [Example 25, (Z)—N′-((2,5-dimethylfuran-3-carbonyl)oxy)-4-methylbenzimidamide]
[1]
  EC50: 1000 to 10000 nM

## Cc1cc(C)c(C(=O)O/N=C(\N)c2ccc3c(c2)OCO3)c(C)c1 [Example 26, (Z)—N′-((2,4,6-rimethylbenzoyl)oxy)benzo[d][1,3]dioxole-5-carboximidamide]
[1]
  EC50: < 500 nM

## COc1ccccc1C/C(N)=N/OC(=O)c1ccccc1-c1ccccc1C(=O)OC(C)C [Example 28, (Z)-isopropyl 2′-((((1-amino-2-(2-methoxyphenyl)ethylidene)amino)oxy)carbonyl)-[1,1′-biphenyl]-2-carboxylate]
[1]
  EC50: < 500 nM

## Cc1cccc(-c2ccccc2)c1C(=O)O/N=C(\N)c1ccc(OCc2ccc(Cl)cc2)cc1 [Example 29, (Z)-4-((4-chlorobenzyl)oxy)-N′-((3-methyl-[1,1′-biphenyl]-2-carbonyl)oxy)benzimidamide]
[1]
  EC50: < 500 nM

## Cc1nc(/C(N)=N\OC(=O)c2c(-c3ccccc3)noc2C)cs1 [Example 30, (E)-2-methyl-N′-((5-methyl-3-phenylisoxazole-4-carbonyl)oxy)thiazole-4-carboximidamide]
[1]
  EC50: 1000 to 10000 nM

## Cc1noc(C)c1C(=O)O/N=C(\N)c1ccc(Oc2ccccc2)cc1 [Example 31, (Z)—N′-((3,5-dimethylisoxazole-4-carbonyl)oxy)-4-phenoxybenzimidamide]
[1]
  EC50: 1000 to 10000 nM
